Results from patent publication US5591734A, “17-(3-furyl)-5β, 14β-androstane derivatives active on the cardiovascular system, processes for their preparation and pharmaceutical compositions containing same” (Sigma-Tau Industrie Farmaceutiche Riunite S.p.A., priority 1992, dated 1997).
Counter-ions that a name gives are not always drawn. Like-named read-outs stand apart in the source and are kept apart here.

Assays:
[1] = target: T1, Na^+,K^+ -ATPase receptor (Homo sapiens, UniProt P05023); experiment: displacement of the specific ^3 H-ouabain binding from the purified Na^+,K^+ -ATPase receptor; conditions: ^3 H-ouabain displacement, read-out: Binding ^3 H-Ouab. Displacement log IC50 (converted)
T1 construct: receptor purified according to Jorghensen (Jorghensen P., BBA, 1974, 356, 36); from tissue; kidney outer medulla inferred from the cited Jorgensen method
Text: (§1) To test the affinity for the receptor site of the Na^+,K^+ -ATPase and the inhibitory activity on the enzyme, the following tests were used: a) displacement of the specific ^3 H-ouabain binding from the Na^+,K^^+ -ATPase receptor purified according to Jorghensen (Jorghensen P., BBA, 1974, 356, 36) and Erdmann (Erdmann E. et al., Arzneim. Forsh., 1984, 34, 1314); b) inhibition of the activity of the purified Na^+,K^+ -ATPase measured as % of hydrolysis of ^32 P-ATP in presence and in absence of the tested compound (Mall F. et al., Biochem. Pharmacol., 1984, 33, 47).

[2] = target: T2, purified Na^+,K^+ -ATPase (Homo sapiens, UniProt P05023); experiment: biochemical
T2 construct: receptor purified according to Jorghensen (Jorghensen P., BBA, 1974, 356, 36); from tissue; kidney outer medulla inferred from the cited Jorgensen method
Text: as §1

[3] = test system: spontaneous hypertensive rats of the Milan (MHS); experiment: antihypertensive activity in spontaneous hypertensive rats (MHS), indirect tail-cuff method; format: in vivo, rat; conditions: 10 mg/Kg/os daily for ten days in Methocel 0.5% w/v, 7 rats; for SBP (SYSTOLIC BLOOD PRESSURE FALL IN SPONTANEOUS HYPERTENSIVE RATS (MHS)): controls 172 +/- 2.0; for HR (heart rate): controls 328 +/- 8.6
[4] = purified Na^+,K^+ -ATPase, ^32 P-ATP hydrolysis, read-out: Inhibitory Activity log IC50 (converted)

Compound: C[C@]12CC[C@H](O)C[C@H]1CC[C@@H]1[C@@H]2CC[C@]2(C)[C@@](O)(c3ccoc3)CC[C@]12O [Comp. I-a, 17β(3-Furyl)-5β-androstane-3β,14β,17α-triol]
- IC50 [1]: 1.58 µM
- IC50 [2, 4]: 31.6 µM
- SBP (SYSTOLIC BLOOD PRESSURE FALL IN SPONTANEOUS HYPERTENSIVE RATS (MHS)) [3]: 149 +/- 4.3 mm Hg
- HR (heart rate) [3]: 318 +/- 10.2 beats/min.

Compound: C[C@]12CC[C@H](OCCO)C[C@H]1CC[C@@H]1[C@@H]2CC[C@]2(C)[C@@](O)(c3ccoc3)CC[C@]12O [Comp. I-b, 3β-(2-Hydroxyethoxy)-17β-(3-furyl)-5β-androstane-14β,17α-diol]
- IC50 [1]: 3.16 µM
- IC50 [2, 4]: 25.1 µM

Compound: C[C@]12CC[C@H](OCCCN)C[C@H]1CC[C@@H]1[C@@H]2CC[C@]2(C)[C@@](O)(c3ccoc3)CC[C@]12O [Comp. I-c, 3β-(3-Aminopropoxy), 17β-(3-furyl)-5β-androstane-14β,17α-diol]
- IC50 [1]: 0.501 µM
- IC50 [2, 4]: 7.94 µM

Compound: C[C@]12CC[C@H](OCCN3CCCC3)C[C@H]1CC[C@@H]1[C@@H]2CC[C@]2(C)[C@@](O)(c3ccoc3)CC[C@]12O [Comp. I-d, 3β-(2-(1-Pyrrolidinyl)ethoxy)-17β-(3-furyl)-5β-androstane-14β,17α-diol]
- IC50 [1]: 0.631 µM
- IC50 [2, 4]: 15.8 µM
- SBP (SYSTOLIC BLOOD PRESSURE FALL IN SPONTANEOUS HYPERTENSIVE RATS (MHS)) [3]: 158 +/- 2.5 mm Hg
- HR (heart rate) [3]: 325 +/- 9.3 beats/min.

Compound: CO[C@]1(c2ccoc2)CC[C@]2(O)[C@@H]3CC[C@@H]4C[C@@H](OCCN5CCCC5)CC[C@]4(C)[C@H]3CC[C@]12C [Comp. I-f, 3β-(2-(β1-Pyrrolidinyl)ethoxy)-17β-(3-furyl)-17α-methoxy-5β-androstan-14β-ol]
- IC50 [1]: 5.01 µM
- IC50 [2, 4]: 25.1 µM

Compound: C[C@]12CCC(=O)C[C@H]1CC[C@@H]1[C@@H]2CC[C@]2(C)[C@@](O)(c3ccoc3)CC[C@]12O [Comp. I-j]
- IC50 [1]: 3.98 µM
- IC50 [2, 4]: 79.4 µM

Compound: C[C@]12CCC(=NN=C(N)N)C[C@H]1CC[C@@H]1[C@@H]2CC[C@]2(C)[C@@](O)(c3ccoc3)CC[C@]12O [Comp. I-k, 3-Guanidinoimino-17β-(3-furyl)-5β-androstane-14β,17α-diol]
- IC50 [1]: 1 µM
- IC50 [2, 4]: 15.8 µM

Compound: C[C@]12CC[C@H](O)C[C@H]1CC[C@@H]1[C@@H]2CC[C@]2(C)[C@@](O)(c3ccnnc3)CC[C@]12O [Comp. I-n, 17β-(4-Pyridazinyl)-5β-androstane-3β,14β,17α-triol]
- IC50 [1]: 2.51 µM
- IC50 [2, 4]: 25.1 µM

Compound: C[C@]12CC[C@H](SCCCN)C[C@H]1CC[C@@H]1[C@@H]2CC[C@@]2(C)[C@@]13O[C@@H]3C[C@]2(O)c1ccoc1 [Comp. I-r, 3β-(3-Aminopropylthio)-14β,15β-epoxy-17β-(3-furyl)-5β-androstan-17α-ol oxalate]
- IC50 [1]: 3.98 µM
- IC50 [2, 4]: 31.6 µM
- SBP (SYSTOLIC BLOOD PRESSURE FALL IN SPONTANEOUS HYPERTENSIVE RATS (MHS)) [3]: 154 +/- 2.4 mm Hg
- HR (heart rate) [3]: 320 +/- 9.6 beats/min.

Compound: C[C@]12CC[C@H](OCCOCCN3CCCC3)C[C@H]1CC[C@@H]1[C@@H]2CC[C@]2(C)[C@@](O)(c3ccoc3)CC[C@]12O [Comp. I-w, 3β-(2-(2-(1-Pyrrolidinyl)ethoxy)ethoxy)-17β-(3-furyl)-5β-androstane-14β,17α-diol]
- IC50 [1]: 0.631 µM
- IC50 [2, 4]: 3.98 µM

Compound: CNCCO[C@H]1CC[C@@]2(C)[C@H](CC[C@@H]3[C@@H]2CC[C@]2(C)[C@@](O)(c4ccoc4)CC[C@]32O)C1 [Comp. I-x, 3β-(2-Methylaminoethoxy)-17β-(3-furyl)-5β-androstane 14β,17α-diol]
- IC50 [1]: 0.501 µM
- IC50 [2, 4]: 10 µM

Compound: C[C@]12CC[C@H](OCCCNC(=N)N)C[C@H]1CC[C@@H]1[C@@H]2CC[C@]2(C)[C@@](O)(c3ccoc3)CC[C@]12O [Comp. I-y, 3β(3-Guanidinopropoxy)-17β-(3-furyl)-5β-androstane-14β,17α-diol]
- IC50 [1]: 0.501 µM
- IC50 [2]: 6.31 µM

Compound: C[C@]12CC[C@H](OCC(N)CN)C[C@H]1CC[C@@H]1[C@@H]2CC[C@]2(C)[C@@](O)(c3ccoc3)CC[C@]12O (stereo partly drawn) [Comp. I-z, 3β-(2,3-Diaminopropoxy)-17β-(3-furyl)-5β-androstane-14β,17α-diol]
- IC50 [1]: 0.631 µM
- IC50 [2]: 5.01 µM

Compound: C[C@]12CC[C@H](O)C[C@H]1CC[C@@H]1[C@@H]2CC[C@]2(C)[C@@](O)(C3=CC(=O)OC3)CC[C@]12O [Ref. Comp., 3β,14β,17α-trihydroxy-5β-card-20(22)-enolide, reference compound]
- HR (heart rate) [3]: 334 +/- 11.7 beats/min.
